Test results from EPA's ToxValDB 9.5.
Where “and” joins values, the source holds several entries; their conditions need not be identical. Equal entries are not always repeated. Values belong to the molecule of their own block, whether it stands above or below them.

Key:
Gallus sp. [1] = details: subchronic; duration: 3 months; oral; capsule; Nervous system: Ataxia + Nervous system: Delayed neurotoxicity + Whole body: Decreased weight
Rattus norvegicus [2] = details: for LC50 / LD50: acute; for NOAEL: reproduction developmental
Rattus norvegicus [3] = tested on: Rattus norvegicus
Gallus sp. [4] = details: subchronic; duration: 90 days; oral; F; ataxia, delayed neurotoxicity and weight loss
Rattus norvegicus [5] = details: chronic; duration: 2 years; oral; diet; Blood vessel: Aneurysms + Kidney: Glomerulonephrosis + Whole body: Decreased weight gain
Perdix perdix = details: oral
Rattus norvegicus [6] = details: repeat dose other; oral
Oryctolagus sp. = details: reproduction developmental; duration: 22 days; oral; gavage; M/F; New Zealand; neurological
Canidae = details: chronic, duration: 1 years, oral, diet, Dog Other, Decreased weight gain in males and neurologic findings in both sexes
Rattus norvegicus [7] = tested on: Rattus norvegicus; remark: listed apart in the source
Sus scrofa = details: chronic; duration: 105 days; oral; diet; Not specified; Gastrointestinal system: Disturbance
Mus musculus = details: subchronic; duration: 13 weeks; inhalation; intermittent; Nasal mucosa: Inflammation
Homo sapiens = details: clinical; duration: 30 minutes; inhalation; M/F; respiratory
Rattus norvegicus [8] = assay: LD40; higher = less toxic; details: acute; oral; gavage; Wistar
Rattus norvegicus [9] = details: oral, gavage
Rattus norvegicus [10] = assay: FEL; higher = less toxic; details: reproduction developmental; duration: 54 days; oral; gavage; F; Wistar; generation: P0; P0: Whole Body: Mortality
[11] = chronic, duration: 2 years, oral, diet, F, increased incidence of marked progressive glomerulonephrosis and blood vessel aneurysms in males + Reduced body weight gain in males and …
[12] = subchronic, inhalation, M, nasal lesions of the olfactory mucosa
[13] = developmental, duration: 54 days, M/F, Wistar, generation: F1, F1: Developmental: Whole Body: Dams with Stillborn Pups + F1: Developmental: Whole Body: External Abnormalities + F1: Developmental: Whole …
[14] = developmental, duration: 54 days, generation: F1, F1: Developmental: Whole Body: Dams with Liveborn Pups
[15] = reproduction developmental, duration: 28 days, M, Wistar, generation: P0, P0: Reproductive: Reproductive Organs: Reproductive Organ Histopathology + P0: Reproductive: Whole Body: Copulation Index
[16] = reproduction developmental, duration: 28 days, M, Wistar, generation: P0, P0: Whole Body: Copulation Index
[17] = reproduction developmental, duration: 54 days, F, Wistar, generation: P0, P0: Developmental: Uterus: Implantation + P0: General Toxicity: Whole Body: Clinical Observations + P0: General Toxicity: Whole Body: …
[18] = reproduction developmental, duration: 54 days, F, Wistar, generation: P0, P0: Reproductive: Reproductive Organs: Reproductive Organ Histopathology + P0: Reproductive: Whole Body: Copulation Index + P0: Reproductive…
[19] = reproduction developmental, duration: 54 days, F, Wistar, generation: P0, P0: Reproductive: Whole Body: Length of Gestation
[20] = reproduction developmental, duration: 54 days, F, Wistar, generation: P0, P0: Whole Body: Clinical Observations + P0: Whole Body: Maternal Body Weight + P0: Whole Body: Maternal Body Weight Change
[21] = reproduction developmental, duration: 54 days, F, Wistar, generation: P0, P0: Whole Body: Copulation Index
[22] = reproduction developmental, duration: 54 days, F, Wistar, generation: P0, P0: Whole Body: Length of Gestation + P0: Whole Body: Mortality
[23] = reproduction developmental, duration: 54 days, M/F, Wistar, generation: F1, F1: Whole Body: Litter Weight
[24] = short-term, duration: 28 days, M, Wistar, Adrenal: Adrenal Gland Histopathology + Dermal: Ruffled Fur + Liver: Liver Histopathology + Nerve: Nervous Tissue Histopathology + …
[25] = short-term, duration: 28 days, M, Wistar, Adrenal: Adrenal Gland Weight, Relative + Liver: Liver Weight, Absolute + Lung: Lung Histopathology + Lung: Respiration Distress + Thymus: …
[26] = short-term, duration: 28 days, M, Wistar, Endocrine: Adrenal: Adrenal Gland Histopathology + Endocrine: Adrenal: Adrenal Gland Weight, Absolute + Endocrine: Adrenal: Adrenal Gland …
[27] = short-term, duration: 28 days, M, Wistar, Other Systems: Eye: Ophthalmology + Other Systems: Lung: Lung Histopathology + Other Systems: Lung: Respiration Distress
[28] = subchronic, duration: 54 days, F, Wistar, Adrenal: Adrenal Gland Histopathology + Liver: Liver Histopathology + Nerve: Nervous Tissue Histopathology + Whole Body: Function …
[29] = subchronic, duration: 54 days, F, Wistar, Dermal: Ruffled Fur + Lung: Lung Histopathology + Lung: Respiration Distress + Peripheral Nervous System: Paresis + Thymus: Thymus …
[30] = subchronic, duration: 54 days, F, Wistar, Endocrine: Adrenal: Adrenal Gland Histopathology + Endocrine: Adrenal: Adrenal Gland Weight, Absolute + Endocrine: Adrenal: Adrenal Gland …
[31] = subchronic, duration: 54 days, F, Wistar, Other Systems: Eye: Ophthalmology + Other Systems: Lung: Lung Histopathology + Other Systems: Lung: Respiration Distress

SMILES: CCCCSP(=O)(SCCCC)SCCCC [Tribufos]
- NOEL (Gallus sp. [1]): 0.1 mg/kg-day
- LC50 (Rattus norvegicus [2]; Inhalation, Sprague-Dawley): ≥ 2460 mg/m3 and ≤ 4650 mg/m3
- NOAEL (Rattus norvegicus [3]; reproduction developmental, duration: 364 days, oral, diet, M, Sprague-Dawley, neurological): 0.28 mg/kg-day
- NOAEL (Rattus norvegicus [3]; subchronic, duration: 13 weeks, inhalation, head only, M/F, Wistar, neurological): 2.43 mg/m3
- LOAEL (Gallus sp. [4]): 0.5 mg/kg-day
- NOEL (Gallus sp. [4]): 0.1 mg/kg-day

SMILES: O=S1OCC2C(CO1)C1(Cl)C(Cl)=C(Cl)C2(Cl)C1(Cl)Cl (stereo unspecified) [Endosulfan]
- NOAEL (Rattus norvegicus [5]): 1.17 mg/kg-day
- NOAEL (Perdix perdix): 10 mg/kg-day
- NOAEL (Rattus norvegicus [6]): 0.15 mg/kg-day
- NOAEL (Oryctolagus sp.): 0.7 mg/kg-day
- NOAEL (Rattus norvegicus [3]; chronic, duration: 22 weeks, oral, diet, M, Wistar, immunological): 0.45 mg/kg-day
- LOAEL (Canidae; F): 1.9 mg/kg-day
- NOAEL (Canidae; F): 0.57 mg/kg-day
- LOAEL (Canidae; M): 2.1 mg/kg-day
- LOAEL (Rattus norvegicus [7]; [11]): 3.8 mg/kg-day
- NOAEL (Rattus norvegicus [7]; [11]): 0.7 mg/kg-day
- LOAEL (Rattus norvegicus [7]; chronic, duration: 2 years, oral, diet, M, increased incidence of marked progressive glomerulonephrosis and blood vessel aneurysms in males + Reduced body weight gain in males and …): 2.9 mg/kg-day
- NOAEL (Rattus norvegicus [7]; chronic, duration: 2 years, oral, diet, M, reduced body weight gain (males) and females increased incidence of marked progressive glomerulonephrosis and blood vessel aneurysms (males)): 0.6 mg/kg-day

SMILES: S [Hydrogen sulfide]
- NOAEL (Sus scrofa): 3.1 mg/kg-day
- NOAEL (Mus musculus): 42 mg/m3
- LC50 (Rattus norvegicus [2]; inhalation, Sprague-Dawley): 619 mg/m3 and ≥ 580 mg/m3 and ≤ 659 mg/m3
- NOAEL (Rattus norvegicus [2]; duration: 18 days, inhalation, F, Sprague-Dawley): 112 mg/m3
- NOAEL (Rattus norvegicus [2]; inhalation, Sprague-Dawley, generation: F0): 112 mg/m3
- NOAEL (Rattus norvegicus [2]; inhalation, Sprague-Dawley, generation: F1): 112 mg/m3
- LOAEL (Homo sapiens): 2.79 mg/m3
- NOAEL (Rattus norvegicus [3]; subchronic, duration: 10 weeks, inhalation, M, Sprague-Dawley, respiratory): 13.9 mg/m3
- LOAEL (Rattus norvegicus [7]; [12]): 41.7 mg/m3
- NOAEL (Rattus norvegicus [7]; [12]): 13.9 mg/m3

SMILES: CC(C)(C)C(=O)CCc1ccc(Cl)cc1 [1-(4-Chlorophenyl)-4,4-dimethyl-pentan-3-one]
- LC50 (Rattus norvegicus [2]; Inhalation, Wistar): > 2940 mg/m3
- LD50 (Rattus norvegicus [2]; dermal, occlusive, Wistar): > 5000 mg/kg
- LD50 (Rattus norvegicus [2]; oral, gavage, Wistar): 4750 mg/kg and > 5000 mg/kg and 4820 mg/kg
- LD40 (Rattus norvegicus [8]): 3140 mg/kg

- NEL (Rattus norvegicus [9]; reproduction developmental, duration: 28 days, M, Wistar, generation: P0, P0: Reproductive Organs: Reproductive Organ Histopathology): 125 mg/kg-day
- LEL (Rattus norvegicus [9]; [16]): 125 mg/kg-day
- NEL (Rattus norvegicus [9]; [16]): 100 mg/kg-day
- NEL (Rattus norvegicus [9]; reproduction developmental, duration: 54 days, F, Wistar, generation: P0, P0: Reproductive Organs: Reproductive Organ Histopathology + P0: Whole Body: Fertility Index): 125 mg/kg-day
- NEL (Rattus norvegicus [9]; reproduction developmental, duration: 54 days, F, Wistar, generation: P0, P0: Uterus: Implantation): 125 mg/kg-day
- LEL (Rattus norvegicus [9]; [21]): 125 mg/kg-day
- NEL (Rattus norvegicus [9]; [21]): 100 mg/kg-day
- NEL (Rattus norvegicus [9]; reproduction developmental, duration: 54 days, M/F, Wistar, generation: F1, F1: Whole Body: Dams with Liveborn Pups): 125 mg/kg-day
- NEL (Rattus norvegicus [9]; reproduction developmental, duration: 54 days, M/F, Wistar, generation: F1, F1: Whole Body: Dams with Stillborn Pups + F1: Whole Body: External Abnormalities + F1: Whole Body: Litter Size + F1: Whole Body: Male Pups …): 125 mg/kg-day
- LEL (Rattus norvegicus [9]; [23]): 100 mg/kg-day
- NEL (Rattus norvegicus [9]; [23]): 50 mg/kg-day
- LEL (Rattus norvegicus [9]; [24]): 100 mg/kg-day
- NEL (Rattus norvegicus [9]; [24]): 50 mg/kg-day
- NEL (Rattus norvegicus [9]; short-term, duration: 28 days, M, Wistar, Adrenal: Adrenal Gland Weight, Absolute + Blood: Hematology, Unspecified + Eye: Ophthalmology, Unspecified + Kidney: Urinalysis, Unspecified…): 150 mg/kg-day
- LEL (Rattus norvegicus [9]; [25]): 150 mg/kg-day
- NEL (Rattus norvegicus [9]; [25]): 100 mg/kg-day
- LEL (Rattus norvegicus [9]; [28]): 100 mg/kg-day
- NEL (Rattus norvegicus [9]; [28]): 50 mg/kg-day
- NEL (Rattus norvegicus [9]; subchronic, duration: 54 days, F, Wistar, Adrenal: Adrenal Gland Weight, Absolute + Adrenal: Adrenal Gland Weight, Relative + Blood: Hematology, Unspecified + Eye: Ophthalmology, …): 150 mg/kg-day
- LEL (Rattus norvegicus [9]; [29]): 150 mg/kg-day
- NEL (Rattus norvegicus [9]; [29]): 100 mg/kg-day
SMILES: CCO[Si](CCC(F)(F)C(F)(F)C(F)(F)C(F)(F)C(F)(F)C(F)(F)F)(OCC)OCC [Triethoxy((perfluorohexyl)ethyl)silane]
- LOAEL (Rattus norvegicus [9]; [13]): 100 mg/kg-day
- NOAEL (Rattus norvegicus [9]; [13]): 50 mg/kg-day
- LOAEL (Rattus norvegicus [9]; [14]): 100 mg/kg-day
- NOAEL (Rattus norvegicus [9]; [14]): 50 mg/kg-day
- LOAEL (Rattus norvegicus [9]; [15]): 125 mg/kg-day
- NOAEL (Rattus norvegicus [9]; [15]): 100 mg/kg-day
- LOAEL (Rattus norvegicus [9]; [17]): 100 mg/kg-day
- NOAEL (Rattus norvegicus [9]; [17]): 50 mg/kg-day
- LOAEL (Rattus norvegicus [9]; [18]): 125 mg/kg-day
- NOAEL (Rattus norvegicus [9]; [18]): 100 mg/kg-day
- LOAEL (Rattus norvegicus [9]; [19]): 125 mg/kg-day
- NOAEL (Rattus norvegicus [9]; [19]): 100 mg/kg-day
- LEL (Rattus norvegicus [9]; [20]): 100 mg/kg-day
- NEL (Rattus norvegicus [9]; [20]): 50 mg/kg-day
- LEL (Rattus norvegicus [9]; [22]): 125 mg/kg-day
- NEL (Rattus norvegicus [9]; [22]): 100 mg/kg-day
- LOAEL (Rattus norvegicus [9]; [26]): 100 mg/kg-day
- NOAEL (Rattus norvegicus [9]; [26]): 50 mg/kg-day
- NOAEL (Rattus norvegicus [9]; short-term, duration: 28 days, M, Wistar, Hematologic: Blood: Hematology, Unspecified + Urinary: Kidney: Urinalysis): 125 mg/kg-day
- LOAEL (Rattus norvegicus [9]; [27]): 125 mg/kg-day
- NOAEL (Rattus norvegicus [9]; [27]): 100 mg/kg-day
- LOAEL (Rattus norvegicus [9]; [30]): 100 mg/kg-day
- NOAEL (Rattus norvegicus [9]; [30]): 50 mg/kg-day
- NOAEL (Rattus norvegicus [9]; subchronic, duration: 54 days, F, Wistar, Hematologic: Blood: Hematology, Unspecified + Urinary: Kidney: Urinalysis): 125 mg/kg-day
- LOAEL (Rattus norvegicus [9]; [31]): 125 mg/kg-day
- NOAEL (Rattus norvegicus [9]; [31]): 100 mg/kg-day
- LEL (Rattus norvegicus [9]; subchronic, duration: 54 days, F, Wistar, Whole Body: Maternal Body Weight): 50 mg/kg-day
- FEL (Rattus norvegicus [10]): 125 mg/kg-day
